Series [1] relates to C. difficile. The settings on record: used after vancomycin; cited from earlier work.
In series [2] the test system is C. difficile. The note with it: cited from earlier work; for patients who presented late R-CDI: after 28 days.
In series [3] the test system is C. difficile. The settings on record: 10 mM; cited from earlier work.
The next series concerns Caco-2 cells. The series is described as follows: Cell viability by the trypan blue and MTT methods, Caco-2. Format: cell-based. The note with it: results not shown. On the technique in general: Tetrazolium assays rely on reduction of a dye to a coloured formazan, in cell work by metabolically active cells.
The next series deals with T84 cells. The series is described as follows: Cell viability by the trypan blue and MTT methods, T84. The note with it: results not shown. Format: cell-based.
The test system of series [4] is C. difficile R20291 spores in Caco-2 cells. Briefly: Internalized (taurocholate- and ethanol-resistant) spores in infected Caco-2 cells by the seeding method. Format: cell-based. The note with it: 30 μM nystatin before and during infection; then 0.1% taurocholate 1 h and 70% ethanol.
The subject of series [5] is C. difficile strain R20291. Briefly: Murine R-CDI model, intraperitoneal nystatin before and during CDI with oral vancomycin (Example 4).
The subject of a further series is C. difficile spores. Format: in vivo, C57BL/6 mice. The settings on record: day 2; nystatin 8,500 IU/kg oral from day -1.
Series [6] relates to C. difficile.
From the text: Mice were infected and dosed with an oral solution comprising a combination of nystatin and vancomycin starting from day 3 after infection (time of manifestation of the clinical symptoms).
In this sense, we studied the effect of a formulation comprising nystatin together with vancomycin administered from day 3.
The test system of the next series is C. difficile toxin TcdB. The note with it: patients with CDI; cited from earlier work.

The text below walks through data of patent publication US20220096510A1, “METHOD AND PHARMACOLOGICAL COMPOSITION FOR THE PREVENTION OF RECURRENT INFECTIONS CAUSED BY CLOSTRIDIUM DIFFICILE” (UNIVERSIDAD ANDRÉS BELLO, priority 2018, published 2022).

Take `CO[C@H]1/C=C/O[C@@]2(C)Oc3c(C)c(O)c4c(O)c(c5c(nc6cc(C)ccn65)c4c3C2=O)NC(=O)/C(C)=C\C=C\[C@H](C)[C@H](O)[C@@H](C)[C@@H](O)[C@@H](C)[C@H](OC(C)=O)[C@@H]1C` [rifaximin]: the efficiency rate in the series on C. difficile [1] was 64%.

For `CCc1c(Cl)c(O)c(Cl)c(O)c1C(=O)O[C@H]1[C@H](O)[C@H](OC)[C@H](OC/C2=C\C=C\C[C@H](O)/C(C)=C/[C@H](CC)[C@@H](O[C@@H]3OC(C)(C)[C@@H](OC(=O)C(C)C)[C@H](O)[C@@H]3O)/C(C)=C/C(C)=C/C[C@@H]([C@@H](C)O)OC2=O)O[C@@H]1C` [fidaxomicin], in the series on C. difficile [2], the “patients who presented late R-CDI” value is reported as 19.7% and the “patients who presented early recurrences” value is reported as 8%.

For `N[C@@H](CS)C(=O)O` [cysteine], the “toxin production in vitro” value with C. difficile [3] is “reduces toxin production”.

Regarding `C[C@@H]1[C@H](O)[C@@H](C)/C=C/C=C/CC/C=C/C=C/C=C/C=C/C(O[C@H]2O[C@H](C)[C@@H](O)[C@H](N)[C@@H]2O)CC2O[C@](O)(CC(O)C(O)CCC(O)CC(O)CC(O)CC(=O)O[C@H]1C)CC(O)C2C(=O)O` (stereo partly shown) [nystatin], the cell viability result with Caco-2 cells and with T84 cells was “no differences” throughout. In [4], the “amount of CFU counted (ethanol-resistant spores)” value is “significant decrease”. Besides, the “weight increase on day 11 in respect of day 0” value in series [5] (nystatin 12,000 IU/kg I.P. with vancomycin 50 mg/kg oral) came to 6%. The “weight variation versus control group” value in [5] (nystatin 12,000 IU/kg I.P. with vancomycin 50 mg/kg oral, versus vancomycin alone) is on record as “no significant weight variations”.

As for `CN[C@H](CC(C)C)C(=O)N[C@H]1C(=O)N[C@@H](CC(N)=O)C(=O)N[C@H]2C(=O)N[C@H]3C(=O)N[C@H](C(=O)N[C@H](C(=O)O)c4cc(O)cc(O)c4-c4cc3ccc4O)[C@H](O)c3ccc(c(Cl)c3)Oc3cc2cc(c3O[C@@H]2O[C@H](CO)[C@@H](O)[C@H](O)[C@H]2O[C@H]2C[C@](C)(N)[C@H](O)[C@H](C)O2)Oc2ccc(cc2Cl)[C@H]1O` [vancomycin], in the series with C. difficile spores, the “levels of spores in stools” value came out at 3.8 logarithmic units. Also, the “weight loss on day 11, the day of recurrence” value with C. difficile [6] (after discontinuing treatment on day 8, nystatin 4,250 and 17,000 IU/kg) is “suffered a weight loss”. Also, the mice presenting recurrence in the series with C. difficile [6] (vancomycin 50 mg/kg alone, 5 days from day 3) was 75%; in [5] (5 days after finishing vancomycin 50 mg/kg, 7 days) it was 100%. Moreover, the “patients who presented late R-CDI” value in the series with C. difficile [2] is listed as 35.5%. The “patients who presented early recurrences” value in the series on C. difficile [2] is 27%. Further, in the series on C. difficile toxin TcdB, the R-CDI rates is 27%.
